# According to US6710165B2, “IgE-dependent histamine-releasing factor-binding peptides” (priority 2000, dated 2004):
# Tests used:
# malaria protein HRF = malaria protein HRF (Plasmodium falciparum, UniProt Q8I3Z5); settings: cited from earlier work
# RBL-2H3 cells = test: Inhibition of histamine release by HRF (RIA); assay type: cell-based; settings: for effect on histamine release by HRF: peptide 20 μg/ml, HRF 20 μg/ml
# Method: The full-length rat HRF sequence (Chitpatima, et al., 1988) amplified by PCR was cloned in pRSET-A vector and overexpressed in E. coli. The expressed recombinant protein was purified by His-bound Ni column (Novagen) and used for the stimulation of RBL-2H3 cells. RBL-2H3 cells were grown in 24-well plate at 1×10^6 cells, sensitized with rat IgE antibodies (0.2 μg/ml, Serotec) for 45˜60 minutes and then, treated with 20 μg/ml of the recombinant HRF protein (positive control). The cells as prepared above were dose-dependently treated with heptamer peptides p1 and p2. Also, they were treated with the recombinant HRF protein and peptides p1, p2, p4 and m1 to m7 at the same concentration as that of HRF, i.e. 20 μg/ml, respectively,
# The obtained sample was prepared to acylated histamine using RIA-analysis kit (Immunotech, France) and then, competitively bound to ^125I-acylated histamine and monoclonal antibodies. This sample was reanalyzed in γ-counter.
# HRF = biological target: T1, HRF (Rattus norvegicus, UniProt P63029); test: Competition binding assay of synthetic peptides against phage clones; settings: for binding site on HRF, competitive binding analysis on ph2: competition with ph2; for competition of synthetic peptide with phage clones for HRF: peptide 0.001-1000 nM, phage 1/25-fold diluted
# T1 construct: His tag (pRSET-A); made in house; host or cells: E. coli
# T1 sequence (P63029 1-172): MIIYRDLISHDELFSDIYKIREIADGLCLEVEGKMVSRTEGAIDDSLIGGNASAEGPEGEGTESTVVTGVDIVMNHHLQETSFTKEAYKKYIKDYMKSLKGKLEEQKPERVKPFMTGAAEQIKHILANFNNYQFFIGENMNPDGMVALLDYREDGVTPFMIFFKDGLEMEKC
# Method: Also, as a negative control, random peptide (ran, amino acid sequence: LMEGCRA) was synthesized. To the wells coated with HRF was added each 30 μl of the peptide solution serially diluted in 6% BSA/PBS from 1000 nM (1000, 100, 10, 1, 0.1, 0.01, 0.001 nM) and the solution was allowed to stand at room temperature for 30 minutes. The 1/25-fold diluted phage solution was added thereto and the whole solution was further allowed to stand for 2 hours. The solution was washed five times with PBST and then, each 100 μl of HRP-conjugated anti-M13 antibodies were added thereto and then, the resulting mixture was allowed to stand for 1 hour. The mixture was washed 6 times with PBST and once with PBS, and thereto was added each 100 μl of peroxydase substrate solution to examine the competition.
# b) In order to test whether or not p1, p2 and p4 bind to the identical site on HRF, the wells were coated with HRF according to the substantially same procedure as in the above a).
# PC12 cells = test: Inhibition of HRF-stimulated dopamine release by HRF-binding peptide; assay type: cell-based; settings: 60 μg/ml of p2, 15 μg/ml of HRF
# Method: In order to confirm whether the peptides blocking histamine release by HRF also block neurotransmitters release in nerve cells, the peptide of SEQ ID No. 14 (p2) was tested for its effects on dopamine release stimulated by HRF according to the substantially same procedure as in Example 16.
# Chain of malaria protein HRF (Q8I3Z5 whole entry): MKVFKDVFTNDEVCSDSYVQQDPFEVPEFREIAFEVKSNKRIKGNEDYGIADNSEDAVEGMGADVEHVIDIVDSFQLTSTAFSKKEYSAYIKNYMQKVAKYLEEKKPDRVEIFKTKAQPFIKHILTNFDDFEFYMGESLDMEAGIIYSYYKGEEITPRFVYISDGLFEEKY
Molecule,effect on histamine release by HRF (RBL-2H3 cells),other results
C[C@@H]1CC[C@H]2[C@@H](C)C(=O)O[C@@H]3O[C@@]4(C)CC[C@@H]1[C@]32OO4 [Artemisinin],–,binding to malaria protein HRF (malaria protein HRF): binds to malaria protein HRF
"AYVYPSM (OTHER INFORMATION: IgE-dependent histamine-releasi ng factor binding peptide) [m1, p2 variant, alanine substitution]",inhibited histamine release by HRF,–
LVTYPLP (OTHER INFORMATION: IgE-dependent histamine-releasi ng factor binding peptide) [p1],inhibited histamine release by HRF,"binding site on HRF, competitive binding analysis on ph2 (HRF): bound to the identical site on HRF"
"WAVYPSM (OTHER INFORMATION: IgE-dependent histamine-releasi ng factor binding peptide) [m2, p2 variant, alanine substitution]",inhibited histamine release by HRF,–
WEFPGWM (OTHER INFORMATION: IgE-dependent histamine-releasi ng factor binding peptide) [p4],inhibited histamine release by HRF,"binding site on HRF, competitive binding analysis on ph2 (HRF): bound to the identical site on HRF; competition of synthetic peptide with phage clones for HRF (HRF): bind to HRF competitively with phage clones ph2 and ph4"
"WYAYPSM (OTHER INFORMATION: IgE-dependent histamine-releasi ng factor binding peptide) [m3, p2 variant, alanine substitution]",inhibited histamine release by HRF,–
"WYVAPSM (OTHER INFORMATION: IgE-dependent histamine-releasi ng factor binding peptide) [m4, p2 variant, alanine substitution]",inhibited histamine release by HRF,–
"WYVYKSM (OTHER INFORMATION: IgE-dependent histamine-releasi ng factor binding peptide) [m5, p2 variant, substituted with Lysine (K)]",inhibited histamine release by HRF,–
"WYVYPAM (OTHER INFORMATION: IgE-dependent histamine rele asing factor binding peptide) [m6, p2 variant, alanine substitution]",conversely stimulated histamine release,–
"WYVYPSA [m7, p2 variant, alanine substitution]",inhibited histamine release by HRF,–
WYVYPSM (OTHER INFORMATION: IgE-dependent histamine-releasi ng factor binding peptide) [p2],inhibited histamine release by HRF,"peptide concentration that inhibited histamine release (RBL-2H3 cells; dose-response, 20 μg/ml HRF): ≥ 0.01 µg/mL; inhibition of HRF-increased dopamine release (PC12 cells): about 60%; binding site on HRF, competitive binding analysis on ph2 (HRF): bound to the identical site on HRF; competition of synthetic peptide with phage clones for HRF (HRF): bind to HRF competitively with phage clones ph2 and ph4"
